From ChEMBL document CHEMBL5370648, “Rational Design of Bioorthogonally Activatable PROTAC for Tumor-Targeted Protein Degradation” (J Med Chem, 2023)
The source made the active and inactive calls. No cut-off for these calls is given here.

Tests used:
[1] = target: T1, von Hippel-Lindau disease tumor suppressor/Bromodomain-containing protein 4 (Homo sapiens, UniProt O60885+P40337); test: PROTAC activity at BRD4/VHL E3 ligase in human MCF7 cells assessed as induction of degradation of intracellular BRD4 at 200 nM incubated for 48 hrs by immunofluorescence staining assay; assay type: cell-based
T1 sequence (P40337 whole entry, looked up, other chains not shown): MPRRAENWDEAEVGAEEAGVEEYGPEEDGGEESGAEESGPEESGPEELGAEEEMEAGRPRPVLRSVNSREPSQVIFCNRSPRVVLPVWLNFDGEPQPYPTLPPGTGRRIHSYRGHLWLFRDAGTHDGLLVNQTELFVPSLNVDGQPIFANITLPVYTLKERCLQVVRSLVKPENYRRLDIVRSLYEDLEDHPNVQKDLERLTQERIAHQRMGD

[2] = target: T1, von Hippel-Lindau disease tumor suppressor/Bromodomain-containing protein 4; test: PROTAC activity at BRD4/VHL E3 ligase in 12 hrs BODIPY-TZ treated human T47D cells assessed as reduction in BRD4 expression at upto 2.0 uM incubated for 48 hrs by Western blot analysis; assay type: cell-based
[3] = target: T1, von Hippel-Lindau disease tumor suppressor/Bromodomain-containing protein 4; test: PROTAC activity at BRD4/VHL E3 ligase in human MDA-MB-231 cells assessed as induction of degradation of intracellular BRD4 at 200 nM incubated for 48 hrs by immunofluorescence staining assay; assay type: cell-based
[4] = target: T1, von Hippel-Lindau disease tumor suppressor/Bromodomain-containing protein 4; test: PROTAC activity at BRD4/VHL E3 ligase in 12 hrs BODIPY-TZ treated human T47D cells assessed as induction of degradation of BRD4 at upto 1000 nM incubated for 48 hrs in presence of MLN4924 by immunofluorescence staining assay; assay type: cell-based
[5] = target: T1, von Hippel-Lindau disease tumor suppressor/Bromodomain-containing protein 4; test: PROTAC activity at BRD4/VHL E3 ligase in human MCF7 cells assessed as decrease in BRD4 expression at upto 2.0 uM incubated for 48 hrs by Western blot analysis; assay type: cell-based
[6] = target: T2, von Hippel-Lindau disease tumor suppressor/Bromodomain-containing protein 3 (Homo sapiens) (UniProt Q15059+P40337); test: PROTAC activity at BRD3/VHL E3 ligase in 12 hrs BODIPY-TZ treated human MCF7 cells assessed as reduction in BRD3 expression at upto 2.0 uM incubated for 48 hrs by Western blot analysis; assay type: cell-based
T2 sequence (P40337 whole entry partner): as the sequence (P40337 whole entry, looked up, other chains not shown) above
T2 sequence (Q15059 2-726 limits assumed): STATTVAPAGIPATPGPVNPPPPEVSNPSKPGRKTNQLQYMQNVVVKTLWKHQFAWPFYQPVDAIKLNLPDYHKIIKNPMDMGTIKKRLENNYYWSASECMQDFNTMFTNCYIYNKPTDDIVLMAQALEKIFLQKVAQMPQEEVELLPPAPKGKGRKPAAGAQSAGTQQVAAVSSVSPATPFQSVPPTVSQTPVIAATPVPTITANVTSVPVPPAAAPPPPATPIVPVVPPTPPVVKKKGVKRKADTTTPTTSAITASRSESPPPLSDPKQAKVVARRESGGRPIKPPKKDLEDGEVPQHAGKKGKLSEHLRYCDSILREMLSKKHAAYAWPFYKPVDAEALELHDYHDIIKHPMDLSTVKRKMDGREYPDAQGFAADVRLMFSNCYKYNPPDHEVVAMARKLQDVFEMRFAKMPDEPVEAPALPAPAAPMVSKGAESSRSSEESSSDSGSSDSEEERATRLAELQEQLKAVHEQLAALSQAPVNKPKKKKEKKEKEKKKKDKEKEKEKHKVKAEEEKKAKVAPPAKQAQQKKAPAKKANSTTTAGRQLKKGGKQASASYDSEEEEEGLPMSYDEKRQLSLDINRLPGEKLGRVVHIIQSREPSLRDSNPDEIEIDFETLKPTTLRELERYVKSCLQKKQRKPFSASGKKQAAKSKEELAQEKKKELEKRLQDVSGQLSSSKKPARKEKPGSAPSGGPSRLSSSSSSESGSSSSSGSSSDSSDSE

[7] = target: T1, von Hippel-Lindau disease tumor suppressor/Bromodomain-containing protein 4; test: PROTAC activity at BRD4/VHL E3 ligase in 12 hrs BODIPY-TZ treated human MCF7 cells assessed as suppression of c-Myc expression incubated for 48 hrs by Western blot analysis; assay type: cell-based
[8] = target: T1, von Hippel-Lindau disease tumor suppressor/Bromodomain-containing protein 4; test: PROTAC activity at BRD4/VHL E3 ligase in human T47D cells assessed as decrease in BRD4 expression at upto 2.0 uM incubated for 48 hrs by Western blot analysis; assay type: cell-based
[9] = target: T1, von Hippel-Lindau disease tumor suppressor/Bromodomain-containing protein 4; test: PROTAC activity at BRD4/VHL E3 ligase in 12 hrs BODIPY-TZ treated human MDA-MB-231 cells assessed as degradation of BRD4 expression incubated for 48 hrs by Western blot analysis; assay type: cell-based
[10] = target: T1, von Hippel-Lindau disease tumor suppressor/Bromodomain-containing protein 4; test: PROTAC activity at BRD4/VHL E3 ligase in 12 hrs BODIPY-TZ treated human MDA-MB-231 cells assessed as activation of caspase-3 expression incubated for 48 hrs by Western blot analysis; assay type: cell-based
MCF7 [11] = test: Antitumor activity against IR808-TZ treated human MCF7 cells xenografted in BALB/c nude mouse assessed as tumor growth inhibition at 20 mg/kg measured after 16 days; assay type: functional, organism-based; conditions: time 16.0 day
[12] = Toxicity in BALB/c nude mouse assessed as animal death at 10 mg/kg measured after 16 days in presence of IR808-TZ; assay type: organism-based; conditions: in vivo, 384 h, time 16 day
MCF7 [13] = test: Cytotoxicity against human MCF7 cells assessed as inhbition of cell growth measured after 48 hrs by CCK-8 method; assay type: functional, cell-based; conditions: MCF7, 48 h
MDA-MB-231 [14] = test: Cytotoxicity against human MDA-MB-231 cells assessed as inhbition of cell growth measured after 48 hrs by CCK-8 method; assay type: functional, cell-based; conditions: MDA-MB-231, 48 h
MCF7 [15] = test: Antitumor activity against human MCF7 cells xenografted in BALB/c nude mouse assessed as apoptosis at 20 mg/kg measured after 48 hrs by Western blot analysis; assay type: functional, organism-based
T47D [16] = test: Cytotoxicity against 12 hrs BODIPY-TZ treated human T47D cells assessed as inhbition of cell growth measured after 48 hrs by CCK-8 method; assay type: functional, cell-based
[17] = target: T1, von Hippel-Lindau disease tumor suppressor/Bromodomain-containing protein 4; test: PROTAC activity at BRD4/VHL E3 ligase in 12 hrs BODIPY-TZ treated human MDA-MB-231 cells assessed as suppression of c-Myc expression incubated for 48 hrs by Western blot analysis; assay type: cell-based
MCF7 [18] = test: Antitumor activity against human MCF7 cells xenografted in BALB/c nude mouse assessed as fold increase in tumor volume at 20 mg/kg measured at day 23 post injection; assay type: functional; conditions: time 23 day
[19] = target: T1, von Hippel-Lindau disease tumor suppressor/Bromodomain-containing protein 4; test: PROTAC activity at BRD4/VHL E3 ligase in 12 hrs BODIPY-TZ treated human T47D cells assessed as activation of caspase-3 expression incubated for 48 hrs by Western blot analysis; assay type: cell-based
[20] = target: T1, von Hippel-Lindau disease tumor suppressor/Bromodomain-containing protein 4; test: PROTAC activity at BRD4/VHL E3 ligase in 12 hrs BODIPY-TZ treated human T47D cells assessed as degradation of BRD4 expression incubated for 48 hrs by Western blot analysis; assay type: cell-based
[21] = target: T2, von Hippel-Lindau disease tumor suppressor/Bromodomain-containing protein 3 (Homo sapiens); test: PROTAC activity at BRD3/VHL E3 ligase in 12 hrs BODIPY-TZ treated human MDA-MB-231 cells assessed as reduction in […] expression at upto 2.0 uM incubated for 48 hrs by Western blot analysis; assay type: cell-based
[22] = target: T1, von Hippel-Lindau disease tumor suppressor/Bromodomain-containing protein 4; test: In vivo PROTAC activity at BRD4/VHL E3 ligase in BALB/c nude mouse xenografted with human MCF7 cells assessed as reduction in BRD4 protein level in tumor 10 mg/kg measured after 48 hrs in presence of IR808-TZ by Western blot analysis; assay type: functional, organism-based
T47D [23] = test: Cytotoxicity against human T47D cells assessed as inhbition of cell growth measured after 48 hrs by CCK-8 method; assay type: functional, cell-based
[24] = target: T1, von Hippel-Lindau disease tumor suppressor/Bromodomain-containing protein 4; test: PROTAC activity at BRD4/VHL E3 ligase in 12 hrs BODIPY-TZ treated human MCF7 cells assessed as degradation of BRD4 expression incubated for 48 hrs by Western blot analysis; assay type: cell-based
[25] = target: T1, von Hippel-Lindau disease tumor suppressor/Bromodomain-containing protein 4; test: In vivo PROTAC activity at BRD4/VHL E3 ligase in BALB/c nude mouse xenografted with human MCF7 cells assessed as reduction in BRD4 protein level in tumor 20 mg/kg measured after 48 hrs by Western blot analysis; assay type: functional, organism-based
[26] = target: T1, von Hippel-Lindau disease tumor suppressor/Bromodomain-containing protein 4; test: PROTAC activity at BRD4/VHL E3 ligase in human MDA-MB-231 cells assessed as decrease in BRD4 expression at upto 2.0 uM incubated for 48 hrs by Western blot analysis; assay type: cell-based
MCF7 [27] = test: Antitumor activity against IR808-TZ treated human MCF7 cells xenografted in BALB/c nude mouse assessed as fold increase in tumor volume at 20 mg/kg measured at day 23 post injection; assay type: functional; conditions: time 23 day
[28] = Retention time of the compound by HPLC method; assay type: physicochemical
[29] = target: T2, von Hippel-Lindau disease tumor suppressor/Bromodomain-containing protein 3 (Homo sapiens); test: PROTAC activity at BRD3/VHL E3 ligase in 12 hrs BODIPY-TZ treated human T47D cells assessed as reduction in BRD3 expression at upto 2.0 uM incubated for 48 hrs by Western blot analysis; assay type: cell-based
MDA-MB-231 [30] = test: Cytotoxicity against 12 hrs BODIPY-TZ treated human MDA-MB-231 cells assessed as inhbition of cell growth measured after 48 hrs by CCK-8 method; assay type: functional, cell-based
[31] = target: T1, von Hippel-Lindau disease tumor suppressor/Bromodomain-containing protein 4; test: PROTAC activity at BRD4/VHL E3 ligase in 12 hrs BODIPY-TZ treated human T47D cells assessed as induction of degradation of BRD4 at upto 1000 nM incubated for 48 hrs in presence of MG132 by immunofluorescence staining assay; assay type: cell-based
MCF7 [32] = test: Cytotoxicity against 12 hrs BODIPY-TZ treated human MCF7 cells assessed as inhbition of cell growth measured after 48 hrs by CCK-8 method; assay type: functional, cell-based

With CC1=CC(C)=[N+]2C1=C(c1cccc(-c3nnc(C)nn3)c1)c1c(C)cc(C)n1[B-]2(F)F the Activity [1] was “inactive”, the Activity [2] was “Active” and the Activity [3] was “inactive”. For the same compound, the Activity [4] was “inactive”, the Activity [5] was “inactive” and the Activity [6] was “Active”. The Activity [7] was “Active”, the Activity [8] was “inactive” and the Activity [9] was “Active”. The Activity [10] was “Active”, the Activity (MCF7 [11]) was “Active” and the Activity [12] was “Toxic”. The IC50 (MCF7 [13]) was 1320 nM, the IC50 (MDA-MB-231 [14]) was 652 nM and the Activity (MCF7 [15]) was “inactive”. For the same compound, the IC50 (T47D [16]) was 407 nM, the Activity [17] was “Active” and the “fold change (FC)” value (MCF7 [18]) was 5.98. For the same compound, the Activity [19] was “Active”, the Activity [20] was “Active” and the Activity [21] was “Active”. For the same compound, the Activity [22] was “Active”, the IC50 (T47D [23]) was 1760 nM and the Activity [24] was “Active”. The Activity [25] was “inactive”, the Activity [26] was “inactive” and the “fold change (FC)” value (MCF7 [27]) was 1.74. The Retention_time [28] was 19.92 min, the Activity [29] was “Active” and the IC50 (MDA-MB-231 [30]) was 326 nM. For the same compound, the Activity [31] was “inactive” and the IC50 (MCF7 [32]) was 264 nM.
